SMILES strings stand for the structures. Several values for one entry are separate records, joined by “and”; a condition that tells them apart may be missing. Identical values can stand only once. Entries after “also recorded” stand apart in the source; their conditions may differ.

The text below walks through data of patent US6770671B2, “7,8-dihydro-xanthenone-8-carboxylic acid derivative and novel microbe producing the same” (Korea Research Institute of Bioscience and Biotechnology, priority 2000, dated 2004).

Data set [1] concerns VEGF-induced proliferation of HUVEC. The experiment in a line: VEGF-induced HUVEC proliferation (acid phosphatase assay). In kind it is cell-based, human. Conditions: VEGF 20 ng/ml; 0.004-10 μg/ml compound; 48 hours; FIG. 1. From the text: (§1) To determine the inhibitory effect of the compound represented by the chemical formula 1 on angiogenesis, endothelial cells were used as a model on the basis that they are migrated and differentiated into capillary tubes under a specific culture condition, that is, in the presence of angiogenic factors such as VEGF, bFGF, etc. Stimulation by angiogenic factors triggers complex, intracellular reactions of endothelial cells and causes them to undergo cell proliferation and differentiation, resulting in the induction of angiogenesis. […] In gelatin-coated 96-well plates, HUVEC cultured in an M199 medium (20% FBS, 3 ng/ml bFGF, 100 μg/ml heparin) was plated at a density of 10^4 cells/well and cultured for 24 hours under the condition of serum starvation. Thereafter, VEGF and bFGF were independently added at a concentration of 20 ng/ml per well and ACRL-B4 was also added at concentrations of 0.004, 0.02, 0.08, 0.4, 2 and 10 μg/ml while control wells were treated with angiogenic factors only. After 48 hours incubation, the inhibition of HUVEC proliferation by the ACRL-B4 was quantitatively analyzed by an acid phosphatase assay.

The test system of data set [2] is Lewis lung carcinoma 3LL cells. Nature of the data set: In vivo tumor growth, 3LL Lewis lung carcinoma in C57BL/6 mice. The following applies: for inhibition of tumor growth: 3LL in C57BL/6 mice. Also on record: species or system mouse. As to the method: Into the backs of C57BL/6 mice 4-5 weeks old, 10^6 3LL cancer cells (Korean Collection for Type Culture at Korea Research Institute of Bioscience and Biotechnology) were subcutaneously transplanted. When the tumors were grown to sizes of 100-250 mm^3, the mice were randomly mixed and divided into 4 groups, each of 6 members, to which drugs were administered. For Group 1, only a solvent was used, while the novel compound ACRL-B4 represented by the chemical formula 1 was intraperitoneally injected every other day at doses of 30 mg/kg, 15 mg/kg and 5 mg/kg to Groups 2 to 4, respectively, under the monitoring of tumor sizes and body weights. The test compound was dissolved in a solvent mixture of 85% physiological saline, 5% DMSO (dimethylsulfoxide) and 10% cremophore.
Tumor sizes were calculated according to the following mathematical formula 1, and since the transplantation of cancer cells, changes in tumor size had been measured and the results are depicted in FIG. 2. [formula]

The test system of data set [3] is angiogenesis in chorioallantoic membrane. Nature of the data set: Chorioallantoic membrane (CAM) assay using fertilized eggs. In kind it is in vivo. Conditions: for Inhibition ratio (%): percentage of positive eggs to total tested eggs. As to the method: <4-2> Inhibitory Effect on in vivo Angiogenesis Chorioallantoic membrane assay using fertilized eggs was used to examine whether the novel compound ACRL-B4 of the present invention is effective to inhibit angiogenesis in vivo.
After being grown at 37° C. for three days at a humidity of 90% in an incubator, fertilized eggs were deprived of 2 ml of albumin through a 18-gauge subcutaneous injection needle. On the fourth day, a circular window was cut into each of the eggs and the outer layers of their chorioallantoic membranes were removed. Separately, pieces of thermanox coverslip were coated with the ACRL-B4 compound dissolved in ethanol at the concentration of 1 and 5 μg/coverslip and the ethanol was evaporated. On day 4.5, the thermanox coverslip were placed on the embryonic chorioallantoic membranes of the embryos. After 2 days incubation at 37° C., 1-2 ml of 10% fat emulsion was injected into chorioallantois and observed blood vessel formation during an embryogenesis or development procedure under a microscope. As a positive control, 1 μg/egg of retinoic acid was used and a negative control was non-treated coverslip.

For data set [4], the system named is bFGF-induced proliferation of HUVEC. Nature of the data set: bFGF-induced HUVEC proliferation (acid phosphatase assay). In kind it is cell-based, human. The following applies: bFGF 20 ng/ml; 0.004-10 μg/ml compound; 48 hours; FIG. 1.
Description: as §1

The test system of the next data set is B16-BL6 melanoma cells. The experiment in a line: In vivo tumor growth, B16-BL6 melanoma in C57BL/6 mice. Set-up: species or system mouse. The following applies: for inhibition of tumor growth: B16-BL6 in C57BL/6 mice. As to the method:
Onto the back of C57BL/6 mice 4-5 weeks old, 10^6 B16-BL6 melanoma cells were subcutaneously transplanted. When the tumors were grown to sizes of 100-250 mm^3, the mice were randomly mixed and divided into 4 groups, each of 6 members, to which drugs were then administered. For Group 1, only a solvent was used, while the novel compound ACRL-B4 represented by the chemical formula 1 was intraperitoneally injected every other day at doses of 30 mg/kg, 15 mg/kg and 5 mg/kg to Groups 2 to 4, respectively, with monitoring of tumor sizes and body weights. The test compound was dissolved in a solvent mixture of 85% physiological saline, 5% DMSO (dimethylsulfoxide) and 10% cremophore.
For the calculation of cancer sizes, the mathematical formula 1 was used, and since the transplantation of cancer cells, changes in tumor size had been measured and the results are depicted in FIG. 3.

The nature of data set [5]: Acute toxicity test on rat upon oral administration. The following applies: in vivo, 500 mg/kg. As to the method:
Using specific pathogen-free (SPF) SD rats, which were six weeks old, the 7,8-dihydro-xanthenone-8-carboxylic acid derivative of the present invention were tested for acute toxicity.
Suspensions of the compound of the present invention in 0.5% methyl cellulose were orally administered once at a dose of 500 mg/kg/15 ml to the rats, which were grouped in threes. […] An autopsy was made of the rats with the naked eye to observe whether their abdominal and thoracic organs were damaged.

The test system of the next data set is protein kinase C. Conditions: Nakanishi et al., J. Antibiotics 1993; cited from earlier work.
Data set [6] relates to smooth muscle myosin light chain kinase. The following applies: Nakanishi et al., J. Antibiotics 1993; cited from earlier work.

As to `COC(=O)C1c2c(oc3cc(CO)cc(O)c3c2=O)C=CC1O` (stereo not shown) [ACRL-B4, 7,8-dihydro-1,7-dihydroxy-3-hydroxymethyl-xanthenone-8-carboxylic acid methyl ester], the “inhibition of VEGF-induced HUVEC proliferation” value in data set [1] is reported as “specifically inhibit the VEGF-induced proliferation of HUVEC; also recorded: potent inhibitory activity against the proliferation of HUVEC; also recorded: inhibit the HUVEC proliferation induced by angiogenic factors, especially VEGF”. The “inhibition of tumor growth” value in data set [2] (5 mg/kg i.p. every other day) is recorded as 40%; in data set [2] (15 mg/kg i.p. every other day), 60%; in data set [2] (30 mg/kg i.p. every other day), 80%; with B16-BL6 melanoma cells (5 mg/kg i.p. every other day) it was 40%; with B16-BL6 melanoma cells (15 mg/kg i.p. every other day), 50%; in the data set with B16-BL6 melanoma cells (30 mg/kg i.p. every other day) it was 65%. Also, the “side effects / body weight” value is reported as “did not exhibit toxic effects such as weight loss; also recorded: without causing side effects such as loss of body weight” in data set [2] (5-30 mg/kg i.p. every other day, 3LL-bearing C57BL/6 mice) and “did not exhibit toxic effects such as weight loss; also recorded: without causing side effects such as loss of body weight” with B16-BL6 melanoma cells (5-30 mg/kg i.p. every other day, B16-BL6-bearing C57BL/6 mice). The “No. of egg showing anti-angiogenesis” value in data set [3] (1 μg/egg) is recorded as 10; in data set [3] (5 μg/egg), 9. Moreover, the “Inhibition ratio (%)” value in data set [3] (1 μg/egg) was 71% and 71.4%; in data set [3] (5 μg/egg), 90%. Besides, the “inhibition of bFGF-induced HUVEC proliferation” value in data set [4] is “inhibit the HUVEC proliferation induced by angiogenic factors”. Further, in data set [5] (oral, single dose, SD rats, read-out: lethal dose (LD50)), the LD50 – broadly, the dose expected to kill half of the subjects tested – was at least 500 mg/kg. Besides, in data set [5] (po), the “death and clinical symptoms” value was “Neither sudden death nor noticeable clinical symptoms were detected”. In data set [5] (po), the “toxicity signs (weight change, serological tests, serobiochemical tests, corpse examination)” value is recorded as “no toxicity signs were observed”.

Turning to `CC1=C(/C=C/C(C)=C/C=C/C(C)=C/C(=O)O)C(C)(C)CCC1` [Positive control, retinoic acid, reference compound], in data set [3] (1 μg/egg), the “No. of egg showing anti-angiogenesis” value is reported as 6 and the “Inhibition ratio (%)” value was determined as 75%.

For `COC(=O)C12OC1C=Cc1oc3cc(CO)cc(O)c3c(=O)c12` (stereo not shown) [MS-347a], the “inhibition of protein kinase C” value in the data set on protein kinase C is “inhibitory activity”. For the same compound, the “inhibition of smooth muscle myosin light chain kinase” value in data set [6] is listed as “inhibitory activity against smooth muscle myosin light chain kinase”.

As to `COC(=O)c1c(O)ccc2oc3cc(CO)cc(O)c3c(=O)c12` [sydowinin B], in data set [6], the “inhibition of smooth muscle myosin light chain kinase” value was “inhibitor of smooth muscle myosin light chain kinase”.
